Consider eleven compounds from US8367873B2, “Phenyl-substituted bicyclooctane-1,3-dione derivatives” (Bayer Cropscience AG, priority 2008, dated 2013).

Holding throughout (assay type): in vivo
The subject of experiment [1] is Setaria viridis. Description: Herbicidal pre-emergence action. The conditions noted are these: pre-emergence method, 80 g/ha, greenhouse, visual assessment vs untreated controls. Summed up: (§1)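 Seeds sown in sandy loam and covered; WP-formulated compounds applied to the soil surface as aqueous suspension at 600 l/ha with 0.2% wetting agent, at varying rates. Greenhouse-grown; emergence damage scored visually after three weeks versus untreated controls (100% = plants dead, 0% = like control).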

Experiment [2] deals with Echinocloa crus-galli. Kind of experiment: Herbicidal pre-emergence action. The conditions noted are these: pre-emergence method, 80 g/ha, greenhouse, visual assessment vs untreated controls. The gist of the method: as §1
Experiment [3] has as its system Alopecurus myosuroides. Description: Herbicidal pre-emergence action. The conditions noted are these: pre-emergence method, 80 g/ha, greenhouse, visual assessment vs untreated controls. Summed up:
as §1

Experiment [4] relates to Lolium multiflorum. Kind of experiment: Herbicidal pre-emergence action. Particulars: pre-emergence method, 80 g/ha, greenhouse, visual assessment vs untreated controls. Summed up:
as §1

Experiment [5] deals with monocotylidonous and dicotylidonous weed and crop plants. Description: Herbicidal post-emergence action (other test plants). The conditions noted are these: post-emergence method, 80 g/ha. Summed up: (§2)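 Percent herbicidal effect (0% like control, 100% plants dead) was rated by eye roughly three weeks post-treatment. Treatment was a post-emergence spray of wettable-powder formulations at different doses, 600 l/ha water with 0.2% wetter, onto one-leaf-stage weeds and crops grown in greenhouse pots.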

Experiment [6] has the same test system. Kind of experiment: Herbicidal pre-emergence action (other test plants). Particulars: pre-emergence method, 80 g/ha, greenhouse, visual assessment vs untreated controls. The gist of the method: as §1
Experiment [7] relates to Setaria viridis. Kind of experiment: Herbicidal post-emergence action. The conditions noted are these: post-emergence method, 80 g/ha. Summed up: as §2
The subject of experiment [8] is Echinocloa crus-galli. Kind of experiment: Herbicidal post-emergence action. Particulars: post-emergence method, 80 g/ha. The gist of the method: as §2
The test system of experiment [9] is Alopecurus myosuroides. Description: Herbicidal post-emergence action. Particulars: post-emergence method, 80 g/ha. The gist of the method: as §2
The test system of experiment [10] is Lolium multiflorum. Description: Herbicidal post-emergence action. The conditions noted are these: post-emergence method, 80 g/ha. Summed up: as §2

`CCOC1COC2(CC3C(=O)C(c4c(CC)cc(C)cc4CC)=C([O-])C3C2)OC1.[Na+]` (centres unmarked) [I-f-14]: in the experiment on Setaria viridis [1], the “herbicidal effect SETVI” value is recorded as 100%. Further, in the experiment on Echinocloa crus-galli [2], the “herbicidal effect ECHCG” value is listed as 100%. In the experiment on Alopecurus myosuroides [3], the “herbicidal effect ALOMY” value worked out at 100%. In addition, the “herbicidal effect LOLMU” value with Lolium multiflorum [4] is reported as 100%. The “herbicidal effect against AVEFA (Avena fatua)” value (“herbicidal effect against AVEFA” below) in [5] came out at 100%. Also, in experiment [6], the “herbicidal effect AVEFA” value is 70%. Also, in the experiment with Setaria viridis [7], the “herbicidal effect against SETVI (Setaria viridis)” value (shortened to “herbicidal effect against SETVI”) was 100%. The “herbicidal effect against ECHCG (Echinochloa crus-galli)” value (“herbicidal effect against ECHCG” for short) in the experiment on Echinocloa crus-galli [8] is 100%. Besides, in the experiment with Alopecurus myosuroides [9], the “herbicidal effect against ALOMY (Alopecurus myosuroides)” value (from here on “herbicidal effect against ALOMY”) is reported as 100%. Besides, the “herbicidal effect against LOLMU (Lolium multiflorum)” value (from here on “herbicidal effect against LOLMU”) in the experiment on Lolium multiflorum [10] is 100%.
In the case of `CCOC(=O)OC1=C(c2c(CC)cc(C)cc2CC)C(=O)C2CC3(CC12)OCC(OC)CO3` (centres unmarked) [I-c-25], in the experiment with Setaria viridis [1], the “herbicidal effect SETVI” value is on record as 80%. The “herbicidal effect ECHCG” value with Echinocloa crus-galli [2] stood at 100%. In the experiment on Alopecurus myosuroides [3], the “herbicidal effect ALOMY” value is 100%. Also, in the experiment with Lolium multiflorum [4], the “herbicidal effect LOLMU” value turned out to be 100%. Also, the “herbicidal effect against AVEFA” value in [5] was 100%. Besides, in [6], the “herbicidal effect AVEFA” value came to 90%. In the experiment with Setaria viridis [7], the “herbicidal effect against SETVI” value was found to be 100%. Further, the “herbicidal effect against ECHCG” value in the experiment on Echinocloa crus-galli [8] is reported as 100%. In the experiment with Alopecurus myosuroides [9], the “herbicidal effect against ALOMY” value is recorded as 100%. For the same compound, the “herbicidal effect against LOLMU” value in the experiment with Lolium multiflorum [10] stood at 100%.
Turning to `CCc1cc(C)cc(CC)c1C1=C([O-])C2CC3(CC2C1=O)OCC(OC)CO3.[Na+]` (centres unmarked) [I-f-13], the “herbicidal effect SETVI” value with Setaria viridis [1] turned out to be 90%. Also, in the experiment with Echinocloa crus-galli [2], the “herbicidal effect ECHCG” value worked out at 100%. The “herbicidal effect ALOMY” value in the experiment on Alopecurus myosuroides [3] came to 100%. Also, the “herbicidal effect LOLMU” value in the experiment on Lolium multiflorum [4] was found to be 100%. Also, the “herbicidal effect against AVEFA” value in [5] was 100%. In addition, the “herbicidal effect AVEFA” value in [6] is on record as 0%. Also, the “herbicidal effect against SETVI” value in the experiment with Setaria viridis [7] came out at 100%. In addition, in the experiment on Echinocloa crus-galli [8], the “herbicidal effect against ECHCG” value came out at 100%. Besides, in the experiment on Alopecurus myosuroides [9], the “herbicidal effect against ALOMY” value is recorded as 100%. In addition, the “herbicidal effect against LOLMU” value with Lolium multiflorum [10] is 100%.
As for `CCOC(=O)OC1=C(c2c(CC)cc(C)cc2CC)C(=O)C2CC(=NOCC3CC3)CC12` (centres unmarked) [I-c-40], the “herbicidal effect SETVI” value with Setaria viridis [1] stood at 40%. The “herbicidal effect ECHCG” value in the experiment on Echinocloa crus-galli [2] was 0%. The “herbicidal effect ALOMY” value with Alopecurus myosuroides [3] came to 80%. The “herbicidal effect LOLMU” value in the experiment on Lolium multiflorum [4] came out at 80%. In addition, in experiment [5], the “herbicidal effect against AVEFA” value amounted to 0%. Further, the “herbicidal effect AVEFA” value in experiment [6] was determined as 60%. The “herbicidal effect against SETVI” value in the experiment with Setaria viridis [7] is listed as 100%. The “herbicidal effect against ECHCG” value in the experiment with Echinocloa crus-galli [8] was 100%. Moreover, the “herbicidal effect against ALOMY” value with Alopecurus myosuroides [9] is reported as 100%. In addition, in the experiment on Lolium multiflorum [10], the “herbicidal effect against LOLMU” value turned out to be 100%.
In the case of `C=C1CC2C(=O)C(c3c(C)cc(C)cc3C)=C(OC(=O)C(C)C)C2C1` (centres unmarked) [I-b-38], in the experiment with Setaria viridis [1], the “herbicidal effect SETVI” value is listed as 80%. Besides, the “herbicidal effect ECHCG” value with Echinocloa crus-galli [2] was determined as 80%. Moreover, the “herbicidal effect ALOMY” value in the experiment with Alopecurus myosuroides [3] is 80%. Also, the “herbicidal effect LOLMU” value in the experiment on Lolium multiflorum [4] stood at 60%. Also, the “herbicidal effect against AVEFA” value in experiment [5] worked out at 0%. Also, in [6], the “herbicidal effect AVEFA” value came to 70%. Also, the “herbicidal effect against SETVI” value with Setaria viridis [7] worked out at 90%. Also, the “herbicidal effect against ECHCG” value in the experiment on Echinocloa crus-galli [8] was determined as 90%. The “herbicidal effect against ALOMY” value in the experiment on Alopecurus myosuroides [9] is 40%. Also, the “herbicidal effect against LOLMU” value in the experiment on Lolium multiflorum [10] is reported as 70%.
Regarding `CCc1cc(C)cc(C)c1C1=C(OC(=O)OC(C)C)C2CC3(CC2C1=O)OCC=CCO3` (racemic) [I-c-74], the “herbicidal effect SETVI” value in the experiment on Setaria viridis [1] worked out at 100%. Moreover, in the experiment with Echinocloa crus-galli [2], the “herbicidal effect ECHCG” value is listed as 100%. Besides, the “herbicidal effect ALOMY” value in the experiment with Alopecurus myosuroides [3] is given as 70%. The “herbicidal effect LOLMU” value in the experiment on Lolium multiflorum [4] stood at 100%. The “herbicidal effect against AVEFA” value in experiment [5] stood at 70%. In experiment [6], the “herbicidal effect AVEFA” value was 60%. Also, the “herbicidal effect against SETVI” value in the experiment on Setaria viridis [7] is 100%. Further, the “herbicidal effect against ECHCG” value in the experiment with Echinocloa crus-galli [8] is recorded as 100%. In addition, the “herbicidal effect against ALOMY” value in the experiment on Alopecurus myosuroides [9] is recorded as 60%. Further, the “herbicidal effect against LOLMU” value with Lolium multiflorum [10] was determined as 100%.
Take `C=C1CC2C(=O)C(c3c(C)cc(C)cc3OC)=C(OC(=O)C(C)C)C2C1` (centres unmarked) [I-b-62]: the “herbicidal effect SETVI” value with Setaria viridis [1] is listed as 80%. For the same compound, in the experiment with Echinocloa crus-galli [2], the “herbicidal effect ECHCG” value was found to be 70%. Besides, in the experiment on Alopecurus myosuroides [3], the “herbicidal effect ALOMY” value stood at 50%. In addition, the “herbicidal effect LOLMU” value with Lolium multiflorum [4] turned out to be 70%. Besides, the “herbicidal effect against AVEFA” value in experiment [5] stood at 0%. In addition, the “herbicidal effect AVEFA” value in experiment [6] is recorded as 40%. Also, the “herbicidal effect against SETVI” value in the experiment with Setaria viridis [7] was 90%. Besides, in the experiment with Echinocloa crus-galli [8], the “herbicidal effect against ECHCG” value was determined as 100%. For the same compound, the “herbicidal effect against ALOMY” value in the experiment with Alopecurus myosuroides [9] is reported as 30%. The “herbicidal effect against LOLMU” value in the experiment on Lolium multiflorum [10] is listed as 90%.
On to `Cc1cc(C)c(C2=C(OC(=O)C(C)C)C3CC4(CC3C2=O)OCCCCO4)c(C)c1` (centres unmarked) [I-b-41], for which the “herbicidal effect SETVI” value in the experiment on Setaria viridis [1] worked out at 50%. Also, the “herbicidal effect ECHCG” value in the experiment on Echinocloa crus-galli [2] is recorded as 0%. The “herbicidal effect ALOMY” value in the experiment on Alopecurus myosuroides [3] is on record as 50%. For the same compound, in the experiment with Lolium multiflorum [4], the “herbicidal effect LOLMU” value amounted to 100%. Further, the “herbicidal effect against AVEFA” value in [5] stood at 0%. Also, the “herbicidal effect AVEFA” value in [6] was determined as 40%. The “herbicidal effect against SETVI” value in the experiment on Setaria viridis [7] came out at 80%. Moreover, in the experiment on Echinocloa crus-galli [8], the “herbicidal effect against ECHCG” value amounted to 100%. Besides, in the experiment with Alopecurus myosuroides [9], the “herbicidal effect against ALOMY” value turned out to be 40%. Moreover, in the experiment with Lolium multiflorum [10], the “herbicidal effect against LOLMU” value amounted to 100%.
Take `CCc1cc(C)cc(CC)c1C1=C(OC(=O)C(C)C)C2CC3(CC2C1=O)OCC=CCO3` (centres unmarked) [I-b-12]: in the experiment on Setaria viridis [1], the “herbicidal effect SETVI” value came out at 90%. In addition, the “herbicidal effect ECHCG” value in the experiment with Echinocloa crus-galli [2] is given as 100%. Also, the “herbicidal effect ALOMY” value with Alopecurus myosuroides [3] amounted to 100%. Moreover, the “herbicidal effect LOLMU” value in the experiment on Lolium multiflorum [4] was 100%. Also, the “herbicidal effect against AVEFA” value in experiment [5] is 100%. For the same compound, the “herbicidal effect AVEFA” value in [6] stood at 70%. The “herbicidal effect against SETVI” value in the experiment with Setaria viridis [7] came out at 100%. Further, the “herbicidal effect against ECHCG” value with Echinocloa crus-galli [8] came out at 100%. Further, in the experiment on Alopecurus myosuroides [9], the “herbicidal effect against ALOMY” value was determined as 90%. For the same compound, the “herbicidal effect against LOLMU” value in the experiment with Lolium multiflorum [10] stood at 100%.
Consider `COC(=O)OC1=C(c2c(C)cc(C)cc2C)C(=O)C2CC3(CC12)OCC=CCO3` (racemic) [I-c-52], for which, in the experiment on Setaria viridis [1], the “herbicidal effect SETVI” value stood at 70%. Moreover, the “herbicidal effect ECHCG” value in the experiment on Echinocloa crus-galli [2] is reported as 50%. Further, the “herbicidal effect ALOMY” value in the experiment on Alopecurus myosuroides [3] is reported as 60%. In addition, in the experiment on Lolium multiflorum [4], the “herbicidal effect LOLMU” value stood at 100%. In addition, in [5], the “herbicidal effect against AVEFA” value was 80%. In experiment [6], the “herbicidal effect AVEFA” value is recorded as 70%. Further, the “herbicidal effect against SETVI” value with Setaria viridis [7] came to 100%. For the same compound, the “herbicidal effect against ECHCG” value in the experiment on Echinocloa crus-galli [8] was found to be 90%. Moreover, the “herbicidal effect against ALOMY” value with Alopecurus myosuroides [9] amounted to 100%. For the same compound, the “herbicidal effect against LOLMU” value with Lolium multiflorum [10] is 100%.
Take `CCOC(=O)OC1=C(c2c(C)cc(C)cc2C)C(=O)C2CC3(COC(C)(C)O3)CC12` (mixture of isomers) [I-c-54]: in the experiment with Setaria viridis [1], the “herbicidal effect SETVI” value was 0%. Moreover, the “herbicidal effect ECHCG” value in the experiment on Echinocloa crus-galli [2] came out at 0%. In addition, the “herbicidal effect ALOMY” value in the experiment with Alopecurus myosuroides [3] is on record as 90%. For the same compound, the “herbicidal effect LOLMU” value in the experiment on Lolium multiflorum [4] was 90%. In experiment [5], the “herbicidal effect against AVEFA” value came to 0%. Also, in experiment [6], the “herbicidal effect AVEFA” value came to 40%. In addition, the “herbicidal effect against SETVI” value with Setaria viridis [7] is listed as 40%. For the same compound, in the experiment with Echinocloa crus-galli [8], the “herbicidal effect against ECHCG” value was determined as 90%. Besides, in the experiment on Alopecurus myosuroides [9], the “herbicidal effect against ALOMY” value worked out at 90%. The “herbicidal effect against LOLMU” value in the experiment on Lolium multiflorum [10] amounted to 80%.
